Assay results taken from ChEMBL document CHEMBL2413072, “Synthesis and in vitro anticancer studies of novel C-2 arylidene congeners of lantadenes” (2013).

Assays:
Type in all cases: functional
[1] = tested on: 786-0; assay: Growth inhibition of human 786-0 cells assessed as cell growth at 10^-7 M by sulforhodamine B assay; conditions: read-out: Activity
[2] = tested on: HCT-15; assay: Growth inhibition of human HCT15 cells assessed as cell growth at 10^-8 M by sulforhodamine B assay; conditions: read-out: Activity
[3] = tested on: CCRF-CEM; assay: Growth inhibition of human CCRF-CEM cells assessed as cell growth at 10^-8 M by sulforhodamine B assay; conditions: read-out: Activity
[4] = tested on: TK-10; assay: Growth inhibition of human TK10 cells by sulforhodamine B assay
[5] = tested on: 786-0; assay: Growth inhibition of human 786-0 cells assessed as cell growth at 10^-6 M by sulforhodamine B assay; conditions: read-out: Activity
[6] = tested on: RXF 393; assay: Growth inhibition of human RXF393 cells assessed as cell growth at 10^-6 M by sulforhodamine B assay; conditions: read-out: Activity
[7] = tested on: SF-268; assay: Growth inhibition of human SF268 cells assessed as cell growth at 10^-4 M by sulforhodamine B assay; conditions: read-out: Activity
[8] = tested on: MCF7; assay: Growth inhibition of human MCF7 cells assessed as cell growth at 10^-4 M by sulforhodamine B assay; conditions: read-out: Activity
[9] = tested on: SK-OV-3; assay: Growth inhibition of human SKOV3 cells assessed as cell growth at 10^-8 M by sulforhodamine B assay; conditions: read-out: Activity
[10] = tested on: SNB-19; assay: Growth inhibition of human SNB19 cells by sulforhodamine B assay
[11] = tested on: OVCAR-8; assay: Growth inhibition of human OVCAR8 cells assessed as cell growth at 10^-7 M by sulforhodamine B assay; conditions: read-out: Activity
[12] = tested on: SNB-75; assay: Growth inhibition of human SNB75 cells assessed as cell growth at 10^-8 M by sulforhodamine B assay; conditions: read-out: Activity
[13] = tested on: SNB-19; assay: Growth inhibition of human SNB19 cells assessed as cell growth at 10^-6 M by sulforhodamine B assay; conditions: read-out: Activity
[14] = tested on: NCI-H460; assay: Growth inhibition of human NCI-H460 cells assessed as cell growth at 10^-4 M by sulforhodamine B assay; conditions: read-out: Activity
[15] = tested on: M14; assay: Growth inhibition of human M14 cells by sulforhodamine B assay
[16] = tested on: A549; assay: Growth inhibition of human A549/ATCC cells by sulforhodamine B assay
[17] = tested on: SK-MEL-2; assay: Growth inhibition of human SK-MEL-2 cells assessed as cell growth at 10^-8 M by sulforhodamine B assay; conditions: read-out: Activity
[18] = tested on: PC-3; assay: Growth inhibition of human PC3 cells assessed as cell growth at 10^-6 M by sulforhodamine B assay; conditions: read-out: Activity
[19] = Growth inhibition of human Hs 578T cells assessed as cell growth at 10^-4 M by sulforhodamine B assay; conditions: read-out: Activity
[20] = tested on: UACC-257; assay: Growth inhibition of human UACC257 cells assessed as cell growth at 10^-7 M by sulforhodamine B assay; conditions: read-out: Activity
[21] = tested on: DU-145; assay: Growth inhibition of human DU145 cells assessed as cell growth at 10^-6 M by sulforhodamine B assay; conditions: read-out: Activity
[22] = tested on: NCI-H23; assay: Growth inhibition of human NCI-H23 cells assessed as cell growth at 10^-4 M by sulforhodamine B assay; conditions: read-out: Activity
[23] = tested on: MCF7; assay: Growth inhibition of human MCF7 cells by sulforhodamine B assay
[24] = Growth inhibition of human HCC2998 cells assessed as cell growth at 10^-7 M by sulforhodamine B assay; conditions: HCC 2998, read-out: Activity
[25] = tested on: NCI-H23; assay: Growth inhibition of human NCI-H23 cells by sulforhodamine B assay
[26] = tested on: SR; assay: Growth inhibition of human SR cells assessed as cell growth at 10^-6 M by sulforhodamine B assay; conditions: read-out: Activity
[27] = tested on: OVCAR-3; assay: Growth inhibition of human OVCAR3 cells assessed as cell growth at 10^-8 M by sulforhodamine B assay; conditions: read-out: Activity
[28] = tested on: U-251; assay: Growth inhibition of human U251 cells assessed as cell growth at 10^-7 M by sulforhodamine B assay; conditions: read-out: Activity
[29] = Growth inhibition of human HCC2998 cells assessed as cell growth at 10^-4 M by sulforhodamine B assay; conditions: HCC 2998, read-out: Activity
[30] = tested on: HL-60(TB); assay: Growth inhibition of human HL-60(TB) cells by sulforhodamine B assay
[31] = tested on: T47D; assay: Growth inhibition of human T47D cells assessed as cell growth at 10^-4 M by sulforhodamine B assay; conditions: read-out: Activity
[32] = tested on: OVCAR-5; assay: Growth inhibition of human OVCAR5 cells assessed as cell growth at 10^-4 M by sulforhodamine B assay; conditions: read-out: Activity
[33] = tested on: SR; assay: Growth inhibition of human SR cells assessed as cell growth at 10^-4 M by sulforhodamine B assay; conditions: read-out: Activity
[34] = tested on: U-251; assay: Growth inhibition of human U251 cells assessed as cell growth at 10^-6 M by sulforhodamine B assay; conditions: read-out: Activity
[35] = tested on: PC-3; assay: Growth inhibition of human PC3 cells assessed as cell growth at 10^-8 M by sulforhodamine B assay; conditions: read-out: Activity
[36] = tested on: SN12C; assay: Growth inhibition of human SN12C cells by sulforhodamine B assay
[37] = tested on: UACC-62; assay: Growth inhibition of human UACC62 cells assessed as cell growth at 10^-8 M by sulforhodamine B assay; conditions: read-out: Activity
[38] = tested on: CAKI-1; assay: Growth inhibition of human CAKI-1 cells assessed as cell growth at 10^-4 M by sulforhodamine B assay; conditions: read-out: Activity
[39] = tested on: OVCAR-8; assay: Growth inhibition of human OVCAR8 cells assessed as cell growth at 10^-6 M by sulforhodamine B assay; conditions: read-out: Activity
[40] = tested on: TK-10; assay: Growth inhibition of human TK10 cells assessed as cell growth at 10^-7 M by sulforhodamine B assay; conditions: read-out: Activity
[41] = tested on: SF-295; assay: Growth inhibition of human SF295 cells assessed as cell growth at 10^-4 M by sulforhodamine B assay; conditions: read-out: Activity
[42] = read-out: LC50 (the source's name)
[43] = read-out: pLC50 (the source's name) (converted)

C/C=C(/C)C(=O)O[C@@H]1CC(C)(C)C[C@H]2C3=CC[C@@H]4[C@@]5(C)CCC(=O)C(C)(C)[C@@H]5CC[C@@]4(C)[C@]3(C)CC[C@@]12C(=O)O [LANTADENE A]
growth at 0.1 µM [1]: 94%
growth at 0.01 µM [2]: 100%
growth at 0.01 µM [3]: 98%
GI50 ([4]; read-out: GI50): 5.37 µM
CC50 [4, 42]: > 100 µM
TGI ([4]; read-out: TGI): > 100 µM
GI50 ([4]; read-out: pGI50 (converted)): 5.37 µM
CC50 [4, 43]: > 100 µM
TGI ([4]; read-out: pTGI (converted)): > 100 µM
growth at 1 µM [5]: 93%
growth at 1 µM [6]: 81%
growth at 100 µM [7]: 34%
growth at 100 µM [8]: 15%
growth at 0.01 µM [9]: 103%
GI50 ([10]; read-out: GI50): 4.67 µM
CC50 [10, 42]: > 100 µM
TGI ([10]; read-out: TGI): > 100 µM
GI50 ([10]; read-out: pGI50 (converted)): 4.68 µM
CC50 [10, 43]: > 100 µM
TGI ([10]; read-out: pTGI (converted)): > 100 µM
growth at 0.1 µM [11]: 98%
growth at 0.01 µM [12]: 86%
growth at 1 µM [13]: 91%
growth at 100 µM [14]: 8%
GI50 ([15]; read-out: GI50): 4.53 µM
CC50 [15, 42]: > 100 µM
TGI ([15]; read-out: TGI): > 100 µM
GI50 ([15]; read-out: pGI50 (converted)): 4.57 µM
CC50 [15, 43]: > 100 µM
TGI ([15]; read-out: pTGI (converted)): > 100 µM
GI50 ([16]; read-out: GI50): 2.84 µM
CC50 [16, 42]: > 100 µM
TGI ([16]; read-out: TGI): > 100 µM
GI50 ([16]; read-out: pGI50 (converted)): 2.82 µM
CC50 [16, 43]: > 100 µM
TGI ([16]; read-out: pTGI (converted)): > 100 µM
growth at 0.01 µM [17]: 111%
growth at 1 µM [18]: 68%
growth at 100 µM [19]: 21%
growth at 0.1 µM [20]: 93%
growth at 1 µM [21]: 102%
growth at 100 µM [22]: 12%
GI50 ([23]; read-out: GI50): 3.6 µM
CC50 [23, 42]: > 100 µM
TGI ([23]; read-out: TGI): > 100 µM
GI50 ([23]; read-out: pGI50 (converted)): 3.63 µM
CC50 [23, 43]: > 100 µM
TGI ([23]; read-out: pTGI (converted)): > 100 µM
growth at 0.1 µM [24]: 108%
GI50 ([25]; read-out: GI50): 4.55 µM
CC50 [25, 42]: > 100 µM
TGI ([25]; read-out: TGI): > 100 µM
GI50 ([25]; read-out: pGI50 (converted)): 4.57 µM
CC50 [25, 43]: > 100 µM
TGI ([25]; read-out: pTGI (converted)): > 100 µM
growth at 1 µM [26]: 80%
growth at 0.01 µM [27]: 109%
growth at 0.1 µM [28]: 94%
growth at 100 µM [29]: 2%
GI50 ([30]; read-out: GI50): 1.87 µM
CC50 [30, 42]: > 100 µM
TGI ([30]; read-out: TGI): 5.26 µM
GI50 ([30]; read-out: pGI50 (converted)): 1.86 µM
CC50 [30, 43]: > 100 µM
TGI ([30]; read-out: pTGI (converted)): 5.25 µM
growth at 100 µM [31]: 23%
growth at 100 µM [32]: 42%
growth at 100 µM [33]: 12%
growth at 1 µM [34]: 90%
growth at 0.01 µM [35]: 93%
GI50 ([36]; read-out: GI50): 3.47 µM
CC50 [36, 42]: > 100 µM
TGI ([36]; read-out: TGI): > 100 µM
GI50 ([36]; read-out: pGI50 (converted)): 3.47 µM
CC50 [36, 43]: > 100 µM
TGI ([36]; read-out: pTGI (converted)): > 100 µM
growth at 0.01 µM [37]: 97%
growth at 100 µM [38]: 20%
growth at 1 µM [39]: 95%
growth at 0.1 µM [40]: 102%
growth at 100 µM [41]: -6%
